Assay [1] concerns rat fat cells. Put plainly: Glucose transport in isolated rat fat cells (insulin-like activity). Type of assay: cell-based, rat (Wistar). The settings on record: for Emax: 0.25 h, read-out: Glucose transport % Insmax; for pEC50: read-out: Glucose transport EC50. The procedure:
(§1) This example provides exemplary methods for determining insulin-like activity. The biological activity of the compounds of the formula I according to the invention is determined with the aid of isolated fat cells from the rat.
(§2) The preparation of fat cells from the rat was carried out as follows: White fatty tissue of the epididymis (Wistar rat, 160-180 g, no food restriction) is digested with collagenase and the resulting isolated fat cells are separated off by means of filtration of undigested tissue and washed by flotation several times using Krebs-Ringer-Henseleit buffer (KRH buffer).
[…] After addition of 15 μl of 2-[^3 H]-deoxyglucose (0.3 mM, 0.2 μCi), the incubation is continued at room temperature. After specified times (0-20 min), 100 μl of the test batch are removed and transferred to a reaction vessel (contents 400 μl), in which 250 μl of dinonyl phthalate have been initially introduced. After centrifugation (15,000×g, 1 min), the cells are separated off from the oily layer of the incubation medium underneath the oily layer by cutting the tube at the level of the oily layer and transferring to a scintillation vessel. After addition of 5 ml of water-soluble scintillation fluid, the radioactivity is determined. This total cell-associated radioactivity is corrected for [^3 H]-deoxyglucose which has passively diffused into the cells and is included in the cell interstices by subtraction of a control value (incubation in the presence of the glucose transport inhibitor cytochalasin B). The initial (stimulated) glucose transport rate is linear up to 15 min. The maximum stimulation factor--this is the ratio of the incubation result with insulin to the incubation result without insulin--is set at 100%.
The terms "%Insmax " and "EC50 " are as defined under A) lipogenesis.

In assay [2] the test system is rat fat cells. Briefly: Lipogenesis in isolated rat fat cells (insulin-like activity). The settings on record: 1.5 h; for pEC50: read-out: Lipogenesis EC50; for Emax: read-out: Lipogenesis % Insmax. Type of assay: cell-based, rat (Wistar). On the procedure:
as §1, §2
This test determines the insulin-stimulable conversion of glucose into toluene-soluble products (triglycerides, phospholipids, fatty acids), which promotes glucose transport and triglyceride (glycerol-3-P synthesis, esterification)/phospholipid/fatty acid synthesis including the insulin signal transmission cascade. At a glucose concentration of 2.5 mM in the test, the esterification (and not the glycerol-3-P synthesis including glucose transport) is rate-determining for the stimulation of lipogenesis.
200 μl (3×10^5 cells/ml) of rat fat cells in KRH buffer are incubated at 37° C. for 90 min with 100 μl of D-[3-^3 H] glucose (25 mM, 0.4 μCi) in the presence or absence of insulin (10 ng/ml) or compound of the formula I according to the invention (final volume 1 ml). By addition of a toluene-soluble scintillation cocktail (10 ml), the cells are disrupted and the lipids are separated off from water-soluble products and the incubation medium. After phase separation, the radioactivity incorporated in lipid products is determined directly without removal of the aqueous phase by scintillation measurement ([^3 H]lipid [dpm×10^-3 ]). A control value (incubation under identical conditions but without cells) is subtracted from this radioactivity. The lipogenesis rate is linear up to 120 min. The maximum stimulation factor--this is the ratio of the incubation result with insulin to the incubation results without insulin--is set at 100%. The percentage data under "%Insmax " are parts of the maximum stimulation factor defined in this way. The term EC50 indicates the concentration of the compound of the formula I at which 50% of the maximum stimulation to be achieved by the respective compound of the formula I is to be observed.

Setting [3] is: part of maximum stimulation factor of insulin (set at 100%), rat fat cells, 15 min, 37° C., 2-[3H]-deoxyglucose.
Where [4] appears, read: concentration at 50% of the maximum stimulation achieved by the respective compound, rat fat cells, 2-[3H]-deoxyglucose.
Where [5] appears, read: concentration at 50% of the maximum stimulation achieved by the respective compound, rat fat cells, 90 min, 37° C.
Where [6] appears, read: part of maximum stimulation factor of insulin (set at 100%), rat fat cells, 90 min, 37° C., D-[3-3H]glucose.

pEC50: −log10 of the molar value.

Turning to `N[C@H]1[C@H](O[C@H]2[C@H](O)[C@@H](O)[C@H](O)[C@@H]3OP(=O)(O)O[C@H]23)O[C@H](CO)[C@@H](O[C@H]2O[C@H](CO[C@H]3O[C@H](CO)[C@@H](O)[C@H](O)[C@@H]3O[C@H]3O[C@H](CO[PH](=O)O)[C@@H](O)[C@H](O)[C@@H]3O[C@H]3O[C@H](CO)[C@@H](O)[C@H](O)[C@@H]3O)[C@@H](O)[C@H](O)[C@@H]2O)[C@@H]1O` [A, HO-PO(H)O-6Manα1(Manα1-2)-2Manα1-6Manα1-4GluNβ1-6(L)inositol-1,2-(cyclic)-phosphate], the Emax in the assay with rat fat cells [1] (setting [3]) is 28%; in the assay with rat fat cells [2] (setting [6]) it was 59%. For the same molecule, the pEC50 (in general, the EC50 on a negative log10 scale, so that one unit is a factor of ten) is 5.10 with rat fat cells [1] (setting [4]) and 5.15 with rat fat cells [2] (setting [5]).
With `N[C@H]1[C@H](O[C@@H]2[C@@H](O)[C@H](O)[C@@H](O)[C@H]3OP(=O)(O)O[C@H]32)O[C@H](CO)[C@@H](O[C@H]2O[C@H](CO[C@H]3O[C@H](CO)[C@@H](O)[C@H](O)[C@@H]3O[C@H]3O[C@H](CO[PH](=O)O)[C@@H](O)[C@H](O)[C@@H]3O[C@H]3O[C@H](CO)[C@@H](O)[C@H](O)[C@@H]3O)[C@@H](O)[C@H](O)[C@@H]2O)[C@@H]1O` [B, HO-PO(H)O-6Manα1(Manα1-2)-2Manα1-6Manα1-4GluNβ1-6(D)inositol-1,2-(cyclic)-phosphate], the Emax in the assay with rat fat cells [1] (setting [3]) amounted to 41%; with rat fat cells [2] (setting [6]), 77%. Further, the pEC50 in the assay with rat fat cells [1] (setting [4]) and in the assay on rat fat cells [2] (setting [5]) was 5.09 throughout.
As to `N[C@H]1[C@H](O[C@@H]2[C@@H](O)[C@H](O)[C@@H](O)[C@H]3OP(O)(=S)O[C@H]32)O[C@H](CO)[C@@H](O[C@H]2O[C@H](CO[C@H]3O[C@H](CO)[C@@H](O)[C@H](O)[C@@H]3O[C@H]3O[C@H](CO[PH](=O)O)[C@@H](O)[C@H](O)[C@@H]3O[C@H]3O[C@H](CO)[C@@H](O)[C@H](O)[C@@H]3O)[C@@H](O)[C@H](O)[C@@H]2O)[C@@H]1O` (some centres unmarked) [C, HO-PO(H)O-6Manα1(Manα1-2)-2Manα1-6Manα1-4GluNβ1-6(D)inositol-1,2-(cyclic)-thiophosphate], in the assay on rat fat cells [1] (Rattus norvegicus), the Emax was determined as 29% and the pEC50 is 5.00. In addition, in the assay with rat fat cells [2] (Rattus norvegicus), the Emax was 64% and the pEC50 was 5.15.
Take `N[C@H]1[C@H](O[C@H]2[C@H](O)[C@@H](O)[C@H](OP(=O)(O)O)[C@H](O)[C@@H]2O)O[C@H](CO)[C@@H](O)[C@@H]1O[C@H]1O[C@H](CO[C@H]2O[C@H](CO)[C@@H](O)[C@H](O)[C@@H]2O[C@H]2O[C@H](CO[PH](=O)O)[C@@H](O)[C@H](O)[C@@H]2O[C@H]2O[C@H](CO)[C@@H](O)[C@H](O)[C@@H]2O)[C@@H](O)[C@H](O)[C@@H]1O` [D, HO-PO(H)O-6Manα1(Manα1-2)-2Manα1-6Manα1-3GluNβ1-6(L)inositol-3-phosphate]: the figures for the Emax in the assay on rat fat cells [1] (setting [3]) and in the assay with rat fat cells [2] (setting [6]) were 18% and 33%, respectively. For the same molecule, the pEC50 in the assay on rat fat cells [1] (setting [4]) was 4.74; in the assay with rat fat cells [2] (setting [5]), 4.70.
Take `NCCOP(=O)(O)OC[C@H]1O[C@H](OC[C@H]2O[C@H](O[C@H]3[C@H](O)[C@@H](N)[C@H](O[C@@H]4[C@@H](O)[C@H](O)[C@@H](O)[C@H]5OP(=O)(O)O[C@H]54)O[C@@H]3CO)[C@@H](OP(=O)(O)OCCN)[C@@H](O)[C@@H]2O)[C@@H](O[C@H]2O[C@H](CO[PH](=O)O)[C@@H](O)[C@H](O)[C@@H]2O[C@H]2O[C@H](CO)[C@@H](O)[C@H](O)[C@@H]2O)[C@@H](O)[C@@H]1O` [E, HO-PO(H)O-6Manα1(Manα1-2)-2Manα1(6-EtNP)-6Manα1(2-EtNP)-4GluNβ1-6(D)inositol-1,2-(cyclic)-phosphate]: the Emax in the assay on rat fat cells [1] (setting [3]) was found to be 34%; in the assay on rat fat cells [2] (setting [6]), 48%. In addition, the pEC50 in the assay with rat fat cells [1] (setting [4]) is 4.52; in the assay with rat fat cells [2] (setting [5]) it was 4.22.
`N[C@H]1[C@@H](O[C@H]2[C@H](O)[C@@H](O)[C@H](O)[C@@H]3OP(=O)(O)O[C@H]23)O[C@H](CO)[C@@H](O[C@H]2O[C@H](CO[PH](=O)O)[C@@H](O)[C@H](O)[C@@H]2O)[C@@H]1O` [G, HO-PO(H)O-6Manα1-4GluNα1-6(L)inositol-1,2-(cyclic)-phosphate]: the Emax in the assay with rat fat cells [1] (setting [3]) was 9%; with rat fat cells [2] (setting [6]), 25%. In addition, the pEC50 with rat fat cells [1] (setting [4]) and in the assay on rat fat cells [2] (setting [5]) was 4.82 throughout.
Consider `N[C@H]1[C@@H](O[C@H]2[C@H](O)[C@@H](O)[C@H](O)[C@H](O)[C@@H]2O)O[C@H](CO)[C@@H](O[C@H]2O[C@H](CO[PH](=O)O)[C@@H](O)[C@H](O)[C@@H]2O)[C@@H]1O` [H, HO-PO(H)O-6Manα1-4GluNα1-6(L)inositol], for which the values for the Emax in the assay with rat fat cells [1] (setting [3]) and in the assay with rat fat cells [2] (setting [6]) were 2% and 15%, respectively. The pEC50 in the assay on rat fat cells [1] (setting [4]) is 5.00; in the assay with rat fat cells [2] (setting [5]), 4.60.
As to `N[C@H]1[C@H](O[C@@H]2[C@@H](O)[C@H](O)[C@@H](O)[C@H]3OP(=O)(O)O[C@H]32)O[C@H](CO)[C@@H](O[C@H]2O[C@H](CO[C@H]3O[C@H](CO[PH](=O)O)[C@@H](O)[C@H](O)[C@@H]3O[C@H]3O[C@H](CO[PH](=O)O)[C@@H](O)[C@H](O)[C@@H]3O[C@H]3O[C@H](CO)[C@@H](O)[C@H](O)[C@@H]3O)[C@@H](O)[C@H](O)[C@@H]2O)[C@@H]1O` [M, HO-PO(H)O-6Manα1(Manα1-2)-2Manα1(6-PO(H)OH)-6Manα1-4GluNβ1-6(D)-inositol-1,2-(cyclic)-phosphate], the figures for the Emax in the assay on rat fat cells [1] (setting [3]) and in the assay on rat fat cells [2] (setting [6]) were 39% and 90%, respectively. The pEC50 is 5.22 with rat fat cells [1] (setting [4]) and 5.15 with rat fat cells [2] (setting [5]).
With `N[C@H]1[C@H](O[C@@H]2[C@@H](O)[C@H](O)[C@@H](O)[C@H]3OP(=O)(O)O[C@H]32)O[C@H](CO)[C@@H](O[C@H]2O[C@H](CO[C@H]3O[C@H](COS(=O)(=O)O)[C@@H](O)[C@H](O)[C@@H]3O[C@H]3O[C@H](COS(=O)(=O)O)[C@@H](O)[C@H](O)[C@@H]3O[C@H]3O[C@H](CO)[C@@H](O)[C@H](O)[C@@H]3O)[C@@H](O)[C@H](O)[C@@H]2O)[C@@H]1O` [N, HO-SO2 -O-6Manα1(Manα1-2)-2Manα1(6-HSO3)-6Manα1-4-GluNβ1-6(D)-inositol-1,2-(cyclic)-phosphate], the Emax is 52% in the assay on rat fat cells [1] (setting [3]) and 96% in the assay on rat fat cells [2] (setting [6]). Moreover, the pEC50 in the assay with rat fat cells [1] (setting [4]) was 5.30; with rat fat cells [2] (setting [5]), 5.52.
In the same order, the values of `O=[PH](O)OC[C@H]1O[C@H](OC[C@H]2O[C@H](OC[C@H]3O[C@H](OC[C@H]4O[C@H](OC[C@H]5O[C@H](O[C@H]6[C@H](O)[C@@H](O)[C@H](OP(=O)(O)O)[C@H](O)[C@@H]6O)[C@@H](O)[C@@H](O)[C@@H]5O)[C@@H](O)[C@@H](O)[C@@H]4O)[C@@H](O)[C@@H](O)[C@@H]3O)[C@@H](O)[C@@H](O)[C@@H]2O)[C@@H](O)[C@@H](O)[C@@H]1O` [O, HO-PO(H)O-6-Manα1-6Manα1-6Manα-1-6Manα1-6Manα1-6(L)inositol-3-phosphate] are 5%, 10%, 4.30 and 4.70.
In the same order, the values of `N[C@H]1[C@H](O[C@H]2[C@H](O)[C@@H](O)[C@H](OP(=O)(O)O)[C@H](O)[C@@H]2O)O[C@H](CO)[C@@H](O)[C@@H]1O[C@H]1O[C@H](CO[C@H]2O[C@H](CO[PH](=O)O)[C@@H](O)[C@H](O)[C@@H]2O[C@H]2O[C@H](CO[PH](=O)O)[C@@H](O)[C@H](O)[C@@H]2O)[C@@H](O)[C@H](O)[C@@H]1O` [Q, HO-PO(H)O-6Manα1-2Manα1(6-PO(H)OH)-6-Manα1-3GluNβ1-6(L)inositol-3-phosphate] are 18%, 44%, 4.52 and 4.40.

These data come from patent US6004938A, “Inositolglycans having insulin-like action” (Hoescht Aktiengesellschaft, priority 1996, dated 1999).
